Assay results reported in patent US20140127231A1, “p38 MAPK Pathway Inhibitors as Female-Specific Therapeutics” (UNIVERSITY OF VERMONT, priority 2012, published 2014).
“Also recorded” adds a separate entry of the source.

Experiments:
[1] = system: Draining lymph node (DLN) cells; assay: Draining lymph node cells of treated EAE mice restimulated with MOG35-55, cytokine ELISA; type: in vivo, C57BL/6J (B6) mice; conditions: DLN cells collected D20, restimulated with MOG35-55 for 3 days
Text: Female B6 mice were immunized for EAE as described for FIG. 1 and treated daily with carrier or SB. On D30 post-immunization, CNS (brain and spinal cord) cells were harvested and analyzed by intracellular staining and flow cytometry. Relative percentages (out of CD4+TCRβ+ population) of IL-17+, IFN-γ+, or IL-17+ IFN-γ+ cells (FIG. 2A), and percentages of CD4+TCRβ+ cells (out of CD45+ cells) (FIG. 2B). DLN cells were collected on D20 and restimulated with MOG35-55 for 3 days. Production of IFN-γ+(FIG. 2C) or IL-17 (FIG. 2D) was assessed by ELISA.
EAE was induced in female C57BL/6J mice as described previously (Noubade et al., 2007, J Clin Invest., 117(11):3507-3518). […]
To examine the mechanism of EAE prevention by SB, the TH1 and TH17 effector subsets were analyzed in treated female mice. […] On D30 post-immunization, CNS (brain and spinal cord) cells were harvested and analyzed by intracellular staining and flow cytometry. […] Draining lymph node (DLN) cells were collected on D20 and restimulated with MOG35-55 for 3 days, and production of IFN-γ and IL-17 was assessed by ELISA.

[2] = system: experimental autoimmune encephalomyelitis (EAE); assay: Active EAE, 2×MOG35-55+CFA, clinical course (Example 1/2); type: in vivo, C57BL/6J (B6) mice; conditions: for Clinical EAE course: daily treatment from D0, 5 mg/kg/d IP
Method: EAE was induced in female C57BL/6J mice as described previously (Noubade et al., 2007, J Clin Invest., 117(11):3507-3518). Mice were injected subcutaneously with an emulsion containing 200 μg of MOG35-55 peptide ([…] (SEQ ID NO: 1) and complete Freund adjuvant (CFA; Sigma-Aldrich) supplemented with 200 μg of Mycobacterium tuberculosis H37RA (Difco Laboratories) in the posterior right and left flank; 1 week later, all mice were similarly injected at 2 sites on the right and left flank anterior of the initial injection sites (2×MOG35-55+CFA). Mice received 5 mg/kg/d SB203580 dihydrochloride (Tocris) by IP injection in a total volume of 200 μL or an equal volume of carrier every day from the day of immunization.
EAE was induced in B10.BR, MKK6-Tg, and dn-p38-Tg mice by immunizing with a single injection of 200 μg of MOG97-114 (TCFFRDHSYQEEAAVELK (SEQ ID NO: 2)) or PLP180-209 ([…] (SEQ ID NO: 3)) in CFA. Immediately thereafter, each animal received 200 ng of PTX (List Biologic Laboratories) by IV injection. Mice were scored daily starting at day 10 after injection as previously described (Noubade et al., 2007, J Clin Invest., 117(11):3507-3518). Clinical quantitative trait variables were generated as previously described (Butterfield et al., 1998, J Immunol., 161(4):1860-1867).
Age-matched male and female C57BL/6J (B6) mice were treated with the p38 MAPK inhibitor SB203580 (SB) starting at the time of immunization for the induction of EAE with myelin oligodendrocyte glycoprotein peptide 35-55 (MOG35-55) and complete Freund's adjuvant (CFA). Clinical EAE course in male and female B6 mice immunized with 2×MOG35-55-CFA treated daily with either carrier or SB starting on D0. […] In separate experiments, Clinical EAE course in female B6 mice immunized with 2×MOG35-55-CFA and randomly selected for daily treatment with either carrier or SB upon reaching a clinical score≧1. It was observed that disease progression could also be halted in female mice if the inhibitor was administered at the first onset of clinical signs (FIG. 1B).

[3] = female B6 mice, treatment from D0 stopped after 30 days

C[S+]([O-])c1ccc(-c2nc(-c3ccncc3)c(-c3ccc(F)cc3)[nH]2)cc1 (stereo not drawn) [SB203580]
IFN-γ production (ELISA) [1]: did not decrease | IL-17 production (ELISA) [1]: specifically inhibited IL-17 production | Clinical EAE course ([2]; female B6 mice): female-specific therapy for EAE; also recorded: ameliorated EAE | Clinical EAE course ([2]; female B6 mice, listed as SB): fully prevented disease; also recorded: completely inhibits EAE | Disease progression (clinical EAE course) ([2]; female B6 mice, daily treatment started upon reaching clinical score ≧1): halted | Disease severity on readministration ([2]; female B6 mice, re-treated from D41 thru D60): modest reduction and stabilization of their disease severity | EAE severity reached after discontinuing treatment [2, 3]: equivalent severity to those seen in carrier-treated mice | Time to appearance of clinical signs of EAE after discontinuing treatment [2, 3]: 2 to 3 days | Clinical EAE course ([2]; male B6 mice, listed as SB): completely unresponsive
